Earlier results in patent publication US20080138440A1, “Methods of diagnosing and alleviating gadolinium toxicity” (priority 2006, published 2008).

Conditions: high doses; cited from earlier work

In the case of `CNC[C@H](O)[C@@H](O)[C@H](O)[C@H](O)CO.CNC[C@H](O)[C@@H](O)[C@H](O)[C@H](O)CO.O=C([O-])CN(CCN(CC(=O)[O-])CC(=O)O)CCN(CC(=O)[O-])CC(=O)O.[Gd+3]` [gadopentetate dimeglumine injection, gadopentetate dimeglumine], the arrhythmias is listed as “Arrhythmias have been noted”.
